Columns and labels:
Spodoptera litura [1] = assay: Whole plant greenhouse assay, binary mixture, Spodoptera litura; assay type: in vivo; conditions: tomato plants, 3rd instar larva, 72 hours; flubendiamide 30 GAH, Ascophyllum nodosum 120 GAH, solo or mixture 30 + 120 (1:4)
Text: (§1) 25 to 30 days old tomato plants were used for the treatments.

Helicoverpa armigera [2] = assay: Whole plant greenhouse assay, 3-way mixture, Helicoverpa armigera; conditions: tomato plants, 3rd instar larva, 72 hours; flubendiamide 30 GAH, profenofos 480 GAH, Ascophyllum Nodosum 120 GAH, solo or mixtures (1:16, 4:1, 1:16:4)
Description: (§2) The action expected for a given combination of two or three active components can be calculated as follows: […]
(§3) The experiments were carried out to study synergies if any in terms of the use of insecticides (Flubendiamide & Profenofos) and Ascophyllum Nodosum extract mixture at ratio 1:16:4 and 1:16:6 for the control of insect pest and phytotonic effect, if any.
(§4) The whole plant assay was conducted in the greenhouse, in which the desired quantity of the compounds (Flubendiamide, Profenofos and Ascophyllum Nodosum extract) and mixture in the ratio of 1:16:4 and 1:16:6 were prepared. 40-45 days old tomato plants were used for the treatments. Prepared compounds (Table 7) were sprayed in the booth of Generation III research sprayer (to obtain uniformity in spray) with a delivery rate of about 500 L/hectare of spray solution through flat fan nozzle. After the treatment, the plants were allowed to dry and then moved to the laboratory. The treated plants were covered with a mylar sheet for restricting the larval movement. Single starved 3rd instar larva was released on to the plants individually and mylar sheet was covered at the top with a muslin cloth for better air ventilation. The observation on dead, moribund and alive larvae was recorded at 72 hours after the treatment.

Spodoptera litura [3] = assay: Field experiment, 3-way mixture, Spodoptera litura in tomato crop; conditions: 7 Day after application, flubendiamide 30 GAH, profenofos 480 GAH, Ascophyllum Nodosum 120 GAH, solo or mixtures (1:16, 1:16:4)
Description: as §2
(§5) The Field experiment was conducted at PI Industries Limited, Agricultural Research Station, Hyderabad to evaluate the efficacy of mixture of Flubendiamide, Profenofos and Ascophyllum Nodosum against Spodoptera litura in tomato crop. The tomato seedlings were transplanted and all the recommended packages of practices for tomato farming were followed in the experiment, except for plant protection chemicals. The ratio of Flubendiamide, Profenofos and Ascophyllum Nodosum mixture was 1:16:4 and 1:16:6 and the experiment was carried out in plots of 5×5 m in a randomized block design with three replications for each treatment. The applications were done with the help of a knapsack sprayer having a delivery of about 500 L/hectare. Care was taken to avoid drift of spray solution to adjacent experimental plots. Assessment of all the treatments was done for vigor, phytotoxicity and insect control. Observation on the insect larval count per plot from fifteen randomly selected plants was recorded at one day before and on 7 Day after application. […] Vigor descriptive scale was totally based on visual observations. For vigor comparison among treatments, untreated plots were considered as 100 percent and based on that rating was given to other treatments.

tomato crop [4] = assay: Field experiment, binary mixture, vigor rating of tomato crop; assay type: in vivo
Text: (§6) The expected activity for a given combination of two active compounds (binary composition) can be calculated as follows: […]
(§7) In which E represents the expected percentage of inhibition of the disease for the combination of two pesticides at defined doses (for example equal to x and y respectively), x is the percentage of inhibition observed for the disease by the compound (1) at a given dose (equal to x), y is the percentage of inhibition observed for the disease by the compound (2) at a defined dose (equal to y).
(§8) The tomato seedlings were transplanted and all the recommended package of practices for tomato farming was followed in the experiment, except for plant protection chemicals. […] Vigor descriptive scale was totally based on visual observations.

Spodoptera litura [5] = assay: Whole plant greenhouse assay, 3-way mixture, Spodoptera litura; conditions: tomato plants, 3rd instar larva, 72 hours; flubendiamide 30 GAH, profenofos 480 GAH, Ascophyllum Nodosum 120 GAH, solo or mixtures (1:16, 1:4, 4:1, 1:16:4)
Description: as §2, §3
as §4, with “and mylar was covered” for “and mylar sheet was covered”

Spodoptera litura [6] = assay: Field experiment, binary mixture, Spodoptera litura in tomato crop; assay type: in vivo
Text: as §8

tomato crop [7] = assay: Field experiment, 3-way mixture, yield of tomato fruits; assay type: in vivo; conditions: flubendiamide 30 GAH, profenofos 480 GAH, Ascophyllum Nodosum 120 GAH, solo or mixtures (1:4, 4:1, 1:16:4)
Description: as §2, §5

tomato crop [8] = assay: Field experiment, binary mixture, yield of tomato fruits; assay type: in vivo; conditions: flubendiamide 30 GAH, Ascophyllum nodosum 120 GAH, solo or mixture 30 + 120 (1:4)
Text: as §6, §7, §8

Helicoverpa armigera [9] = assay: Whole plant greenhouse assay, binary mixture, Helicoverpa armigera; assay type: in vivo; conditions: tomato plants, 3rd instar larva, 72 hours; flubendiamide 30 GAH, Ascophyllum nodosum 120 GAH, solo or mixture 30 + 120 (1:4)
Text: as §1

Thrips = assay: Whole plant greenhouse assay, 3-way mixture, Thrips; conditions: brinjal plants, thrips nymph, 72 hours; flubendiamide 30 GAH, profenofos 480 GAH, Ascophyllum Nodosum 120 GAH, solo or mixtures (1:16, 1:4, 4:1, 1:16:4)
Description: as §2, §3
as §4, with “days old brinjal plants were” for “days old tomato plants were”, “larval movement. Nymph of thrips was released” for “larval movement. Single starved 3rd instar larva was released”, “and mylar was covered” for “and mylar sheet was covered”

tomato crop [10] = assay: Field experiment, 3-way mixture, vigor rating of tomato crop; assay type: in vivo; conditions: for plant vigor compared with control (visual observation): field, tomato crop; for Vigor rating: visual rating, untreated plots = 100 percent, flubendiamide 30 GAH, profenofos 480 GAH, Ascophyllum Nodosum 120 GAH, solo or mixtures (1:16, 1:4, 4:1, 1:16:4)
Text: Vigor descriptive scale was totally based on visual observations.

Structure (SMILES): Cc1cc(C(F)(C(F)(F)F)C(F)(F)F)ccc1NC(=O)c1cccc(I)c1C(=O)NC(C)(C)CS(C)(=O)=O [Flubendiamide, 3-iodo-N′-(2-mesyl-1,1-dimethylethyl)-N-{4-[1,2,2,2-tetrafluoro-1-(trifluoromethyl)ethyl]-o-tolyl}phthalamide]
- % mortality (Spodoptera litura [1]): 70%
- Observed % mortality (Helicoverpa armigera [2]): 65%
- Observed % mortality (Spodoptera litura [3]): 72.7%
- plant vigor compared with control (visual observation) (tomato crop [4]; field, tomato crop): good plant vigor
- Vigor (tomato crop [4]; visual rating, untreated plots = 100 percent, flubendiamide 30 GAH, Ascophyllum nodosum 120 GAH, solo or mixture 30 + 120 (1:4)): 110
- Observed % mortality (Spodoptera litura [5]): 72%
- efficacy against Spodoptera litura in tomato (in words) (Spodoptera litura [6]; 30 GAH): effectively controlled the insect pests
- Spodoptera litura (% control) 7 DAA (Spodoptera litura [6]; tomato, 7 DAA, flubendiamide 30 GAH, Ascophyllum nodosum 120 GAH, solo or mixture 30 + 120 (1:4)): 66.67%
- Spodoptera litura (% control) 10 DAA (Spodoptera litura [6]; tomato, 10 DAA, flubendiamide 30 GAH, Ascophyllum nodosum 120 GAH, solo or mixture 30 + 120 (1:4)): 70.00%
- Observed yield (ton/hectare) of tomato fruits (tomato crop [7]): 64.20 ton/hectare
- Yield of tomato fruits, Ton/ha (observed) (tomato crop [8]): 60.16 Ton/ha
- % mortality (Helicoverpa armigera [9]): 70%
- Observed % mortality (Thrips): 8%
- plant vigor compared with control (visual observation) (tomato crop [10]): good plant vigor
- Vigor rating (tomato crop [10]): 125

Structure (SMILES): CCCSP(=O)(OCC)Oc1ccc(Br)cc1Cl (stereo not shown) [Profenofos, profenofos]
- Observed % mortality (Helicoverpa armigera [2]): 50%
- Observed % mortality (Spodoptera litura [3]): 55.6%
- Observed % mortality (Spodoptera litura [5]): 52%
- Observed yield (ton/hectare) of tomato fruits (tomato crop [7]): 56.95 ton/hectare
- Observed % mortality (Thrips): 72%
- plant vigor compared with control (visual observation) (tomato crop [10]): good plant vigor
- Vigor rating (tomato crop [10]): 120

From US20240315243A1, “A COMBINATION OF FLU[…] SEAWEED EXTRACT” (priority 2021, published 2024)
